{"source": "patent US7897340B2", "about": "“Use of tumor susceptibilty gene 101 (TSG 101) as a prognostic and diagnostic marker” (The Board of Regents of the University of Texas System, priority 2006, dated 2011)", "format_in_all_cases": "cell-based, human", "key": {"TSG101": {"test_system": "TSG101", "assay": "TSG101 expression after siRNA by semiquantitative PCR and immunoblotting in SKOV-3 cells", "conditions": "SKOV-3, semi-quantitative PCR and immunoblotting", "description": "(§1) A siRNA duplex specific for TSG101 (targeting TSG101 coding sequence 413-433) and a scrambled random control siRNA with matching GC content were obtained from Dharmacon. This specific TSG101 siRNA duplex (sense: CCUCCAGUCUUCUCUCGUCdTdT (SEQ ID NO: 7) and antisense: dTd[…] (SEQ ID NO: 8) have been successfully applied to suppress the expression of endogenous TSG101 in several high quality studies (Amit et al., 2004; Garrus et al., 2001; Hewitt et al., 2002; Ismaili et al., 2005). Transfection of the siRNAs was according to the manufacturer's instructions using Lipofectamine 2000 (Invitrogen).\nTotal RNA was isolated from cells using Trizol reagent (Invitrogen), and concentration was determined by absorbance at 260 nm. Semiquantitative RT-PCR was carried out using 1 μg of isolated total RNA. Primers used for RT-PCR were TSG101 forward 5′-[…]-3′ (SEQ ID NO: 1), reverse 5′-[…]-3′ (SEQ ID NO:2), p21 forward 5′-[…]-3′ (SEQ ID NO: 9), reverse 5′-CCGTTTTCGACCCTGAGAG-3′ (SEQ ID NO:10).\nCells transfected with either control or TSG101 siRNA were passaged and subsequently harvested on the appropriate days by trypsinizing cells, washing pelleted cells in PBS and then lysing cells in SDS lysis buffer. Protein concentration of cell lysates was assayed with the Bio-Rad protein assay reagent. […] Immunoblots were developed by enhanced chemiluminescence (Pierce, Rockford, Ill.)."}, "caspase 3": {"test_system": "caspase 3", "assay": "Caspase activity assay", "conditions": "SKOV-3 lysates, 6 days following transfection", "description": "SKOV-3 cells transfected with either control or TSG101 siRNA were grown in 10 cm plates to 70-80% confluence, then harvested by trypsinization, washed twice in PBS and once in wash buffer (100 mM HEPES pH 7.4, 0.5 mM EDTA, 1 mM DTT, 0.1 mM PMSF, 2 μg/ml leupeptin, 2 μg/ml pepstatin). The cells were lysed on ice for 30 min with frequent vortexing in 150 μl of lysis buffer (wash buffer plus 1% Triton-X100). Cell debris was removed by centrifugation at 16,000 g for 20 min at 4° C. Lysate protein concentration was determined by Bradford assay (Bio-Rad). Caspase 3 activity was measured using fluorogenic substrates […] that is specific for caspase 3. Release of free AFC was monitored using a Fluoroskan fluorescence microplate reader with excitation and emission set to 405 and 510 nm, correspondingly."}, "CITED2": {"test_system": "CITED2", "assay": "CITED2 protein by immunoblotting in SKOV-3 cells", "conditions": "SKOV-3, immunoblotting", "description": "Antigen-antibody complexes were detected by enhanced chemiluminescence (Pierce).\nas §1"}, "p21 promoter": {"test_system": "p21 promoter", "assay": "p21 promoter luciferase reporter assay in SKOV-3 cells", "description": "To investigate the mechanism by which TSG101 silencing induced the accumulation of p21 mRNA, a plasmid construct, p21P, with a luciferase reporter gene under the transcriptional control of the p21 promoter was co-transfected into the SKOV-3 cells either with TSG101 specific or control siRNA. […] Since SKOV-3 cells are p53-null, this apparent TSG101 silencing-mediated transcriptional activation of p21 was most likely p53-independent.\nTo further confirm this observation, the luciferase reporter activity was monitored using a deletion p21 reporter construct, p21PΔ1.1, which contained a 1.1 kb deletion that removed the consensus p53-responsive element from the 5′ region of the 2.4 kb p21 promoter 27. […] Since TSG101 contained a putative DNA-binding domain and could act as a general transcriptional suppressor 2, it was hypothesized that TSG101, acting as a transcriptional corepressor, suppressed the transactional activation of p21 by binding to the p21 promoter. Consequently, suppression of TSG101 by siRNA led to the transcriptional activation of p21."}, "SKOV-3 cells [1]": {"test_system": "SKOV-3 cells", "assay": "Nuclear DNA condensation staining (Hoechst)", "conditions": "SKOV-3, day 5 following siRNA transfection", "description": "2-3×10^5 SKOV-3 cells were plated in 3 cm tissue culture plates containing polylysine coated coverslips, and transfected with either control or TSG101 siRNA. Cells on coverslips were stained 5 days post-transfection with Hoechst 22658 for 30 min, rinsed with PBS, and sealed onto glass slides. Nuclear DNA condensation was examined using a fluorescence microscope (Olympus BX51) equipped with a Hamamatsu digital camera (C4742-95)."}, "SKOV-3 cells [2]": {"test_system": "SKOV-3 cells", "assay": "Cell growth by counting", "description": "FIGS. 11A-F show association of suppression of TSG101 expression with cell cycle arrest and growth inhibition. In FIG. 11A, SKOV-3 cells were transfected with TSG101 and control siRNAs and RNA and protein were isolated 48 hours post transfection. Levels of mRNA were determined by semiquantitative RT-PCR and protein levels were determined by immunoblotting, respectively. Similar results were obtained from more than 4 independent experiments. In FIG. 11B, TSG101 or control siRNA transfected cells were plated at 2.5×10^4 cells/well in 6 well plates and cell growth was determined by counting over successive days. Each data point represents the average of 3 wells. Control and TSG101 knockdown SKOV-3 cells were stained with propidium iodide and analyzed by FACS on day 4 (FIG. 11C) or day 6 (FIG. 11D) following transfection. Sub G1 cells are calculated as a supplemental population. In FIG. 11E, SKOV-3 cell lysates were obtained 6 days following transfection with control or TSG101 siRNA. Caspase activity was determined using the fluorogenic substrate DEVD-AFC. In FIG. 11F, control and TSG101 knockdown SKOV-3 cells on day 5 following siRNA transfection were stained using Hoechst 22658 and Nuclear condensation was observed on a fluorescent microscope. Cells with condensed/fragmented DNA were quantified from at least 8 images, and represented as a percentage of the total number of cells. […]"}}, "note": "Entries after “also recorded” stand apart in the source; their conditions may differ."}
{"substance": "TSG101 siRNA: siRNA duplex from Dharmacon targeting TSG101 coding sequence 413-433, SEQ ID NO: 7 and 8 (chain 1 CCUCCAGUCUUCUCUCGUCTT; chain 2 TTGGAGGUCAGAAGAGAGCAG; chemistry not fully specified; one strand is listed 3' to 5')", "values": [{"measurement": "TSG101 expression (mRNA and protein)", "setting": "TSG101", "value": "Suppression of TSG101 expression was confirmed"}, {"measurement": "caspase 3 activity", "setting": "caspase 3", "value": "apparent increases"}, {"measurement": "cellular levels of CITED2 protein", "setting": "CITED2", "value": "significantly reduced"}, {"measurement": "induction of p21 (luciferase reporter)", "setting": "p21 promoter; SKOV-3, full-length p21 promoter construct p21P", "value": 6, "unit": "fold"}, {"measurement": "luciferase activity (p21 promoter reporter)", "setting": "p21 promoter; SKOV-3, p21P construct co-transfected with siRNA, vs control siRNA", "value": "significantly increased; also recorded: potentiates p21 transcription"}, {"measurement": "induction of p21 (luciferase reporter)", "setting": "p21 promoter; SKOV-3, p53-deletion construct p21PΔ1.1", "value": 6, "unit": "fold"}, {"measurement": "nuclear DNA condensation/fragmentation", "setting": "SKOV-3 cells [1]", "value": "apparent increases"}, {"measurement": "cell number (cell growth)", "setting": "SKOV-3 cells [2]; SKOV-3, counting over successive days, vs scrambled control siRNA", "value": "decrease dramatically in number beginning 5 days post transfection"}, {"measurement": "rate of cell growth, initial observations", "setting": "SKOV-3 cells [2]; SKOV-3, up to 72 h posttransfection", "value": "no significant cellular effects on cell growth"}]}
